Results on two compounds are retold here after patent US20240217988A1, “ESTROGEN RECEPTOR ANTAGONIST” (Shenzhen Forward Pharmaceuticals Co., Limited, priority 2021, published 2024).

Series [1] deals with ERα (Homo sapiens (Human), UniProt P03372). In words: Degradation effect of compound on ERα (ERα DuoSet IC ELISA in MCF-7 cells). Particulars: 24 h with compound, read-out: IC50 value of ERα degradation by compound. It is filed as cell-based. Here is the method:
In this test example, ERα DuoSet IC ELISA Kit (R&D, DYC5715) was used to detect the degradation effect of the compound on ERα. On the first day of the experiment, human breast cancer cells MCF-7 (the source was as above) were inoculated into a 24-well plate. The culture medium was an MEM culture medium containing 10% of activated-carbon-treated FBS (Tocyto, UT61204), 1% of pyruvic acid and 1% of nonessential amino acid. The inoculation density was 150,000 cells/well. The cells were cultured at 37° C., 5% CO2 for 24 h.
On the second day of the experiment, the compound to be tested was diluted in gradient and added to a 24-well plate containing cells. The cells were cultured for 24 h at 37° C., 5% CO2. ERα capture antibody was diluted to 1 μg/ml with PBS (Corning, 21-040-CVR) and added to a 96-well plate at 100 μL/well, and the plate was […] coated overnight at room temperature.
On the third day of the experiment, the coated 96-well plate was washed three times with PBS, 300 μL of a blocking solution (R&D, DY995) was added to each well, and the plate was blocked at room temperature for 1 h. The 24-well plate was washed once with PBS, and the residual liquid was sucked off. […] The diluted cell lysate was taken and added to the blocked 96-well plate, with 100 μL per well, and incubated at room temperature for 2 h. The plate was washed three times with a washing solution (R&D, WA126), and a primary antibody was then added. After incubation for 1 h, the 96-well plate was washed four times, a secondary antibody was added, and incubation was carried out at room temperature in the dark for 30 min. The plate was washed four times with the washing solution, and TMB (R&D, DY999) was added. After 15 minutes of development, the reaction was terminated with a stop solution (R&D, DY994), and the light absorption at 450 nm was read.

The test system of series [2] is Human breast cancer cells MCF-7. In words: MCF-7 cell proliferation experiment. It is filed as cell-based. The note with it: Homo sapiens, MCF7; MCF-7 cells, 72 hours, Cell Titer-Glo. How it is done: Test Example 2: MCF-7 Cell Proliferation Experiment
Human breast cancer cells MCF-7 (HTB-22, purchased from ATCC) were inoculated into a 96-well plate. The culture medium was an MEM (Hyclone, SH30024.01B) culture medium containing 10% of FBS (Gibco, 10099-141), 1% of pyruvic acid (Sigma, S8636), and 1% of nonessential amino acid (Sigma, M7145), and the inoculation density was 4,000 cells/well. The cells were cultured at 37° C., 5% CO2. The compound was prepared into a 20 mM stock solution, which was subjected to gradient dilution to a final concentration of […] with 100% DMSO (Sigma, D2650) and then diluted 20 folds with a culture medium containing 2% of FBS. After 24 hours of culture, the culture medium was removed, 90 μL of a culture medium containing 2% of FBS and 10 μL of drug were added to each well, while 10 μL of DMSO was added to the control group, and they were gently shaken and mixed. The blank group only contained 100 μL of 2% FBS culture medium. They were placed in an incubator and cultured at 37° C., 5% CO2. After 72 hours, 50 μL of mixed Cell Titer-Glo (Promega, G7571) was added. They were shaken and mixed uniformly, and placed at room temperature for 10 min. The chemiluminescence signal value was determined. The negative control was 0.5% DMSO well.

Series [3] deals with GST-ERα-LBD (Homo sapiens (Human), UniProt P03372). In words: ERα TR-FRET test. It is filed as biochemical. The note with it: estradiol final concentration 1.5 nM, biotin-SRC2. Here is the method: 1× Tris-HCl (Sigma, PHG0002) protein buffer was prepared and mixed for later use. The compound to be detected was prepared into a stock solution with a concentration of 2 mM and then subjected to serial 3-fold gradient dilution, resulting in a total of 10 concentrations.
Preparation of 1× protein mixed solution: firstly, 2× GST-ERα-LBD (Invitrogen, A15677)/MAb anti-GST-Eu (Cisbio, 61GSTKLA) mixed solution was prepared according to the following table.
2× biotin-SRC2/streptavidin-XL665 (Cisbio, 610SAXLA) mixed solution was prepared.
The above 2× GST-NR-LBD/ MAb anti-GST-Eu solution and 2× biotin-SRC2/streptavidin-XL665 solution were uniformly mixed at a volume ratio of 1:1; and the 1× protein mixed solution was added to each well of a 384-well plate, with 20 μL being added per well, the 384-well plate was put into a centrifuge and centrifuged at room temperature at 1000 rpm for 10 seconds, and it was taken out, then left to stand at room temperature for 3 h, and then read by EnVision multifunctional microplate reader.
The inhibition rate was calculated according to the following formula: […]
The data were imported into Graphpad Prism, and Log(agonist) vs. response-variable slope was used for curve fitting.
Y=Bottom+(Top−Bottom)/(1+10^((LogEC50−X)*HillSlope)) Fitting formula

Series [4] is described as follows: Stability in human liver microsomes in vitro. It is filed as in vitro ADME. Particulars: human liver microsomes; for half-life: microsome protein 1 mg/mL working solution, NADPH; for CLint scaled: scaled to liver; for microsomal CLint: read-out: CLint(mic). Here is the method: Test Example 4: Test for Stability in Human Liver Microsomes In Vitro Eight 96-well incubation plates were prepared and named [NT], Blank60 and NCF60, respectively. […] No test compound or control compound was added to Blank60 plate, and samples were taken after incubation for 60 min. NCF60 plate was incubated with a potassium phosphate buffer instead of an NADPH regeneration system solution (Sigma, N0505) for 60 min. […] Only the microsome working solution was added to Blank60 plate, and the incubation plates Blank60, T5, T15, T30, T45 and T60 except T0 and NCF60 were then placed in a water bath at 37° C. and pre-incubated for about 10 min. To the samples of T0 plate, 600 μL of a stop solution (acetonitrile:methanol (95:5, v/v) solution containing 100 ng/mL of tolbutamide (Sigma, T0891)) was added first, and the NADPH regeneration system working solution was then added. 98 μL of a potassium phosphate buffer was added to each well of NCF60 plate and incubated for 60 min. After the pre-incubation in the incubation plates Blank60, T5, T15, T30, T45 and T60 was completed, 98 μL of the NADPH regeneration system working solution was added to each sample well to initiate the reaction. After an appropriate incubation time (such as 5, 15, 30, 45 and 60 min), 600 μL of a stop solution was added to each sample well and the control sample well in Blank60, […] the reaction. All the sample plates were shaken uniformly and centrifuged at 3220×g for 20 min. 200 μL of test sample supernatant was separately taken and diluted in 200 μL of an aqueous solution containing 0.3% formic acid for LC-MS/MS analysis, and 100 μL of control sample supernatant was taken and diluted in 300 μL of pure water for LC-MS/MS analysis. Calculation was performed according to the following formula: [formula] [formula] [formula] [formula] [formula] [formula]

pIC50: −log10 of the molar value.

Sequence of GST-ERα-LBD (P03372 311-547): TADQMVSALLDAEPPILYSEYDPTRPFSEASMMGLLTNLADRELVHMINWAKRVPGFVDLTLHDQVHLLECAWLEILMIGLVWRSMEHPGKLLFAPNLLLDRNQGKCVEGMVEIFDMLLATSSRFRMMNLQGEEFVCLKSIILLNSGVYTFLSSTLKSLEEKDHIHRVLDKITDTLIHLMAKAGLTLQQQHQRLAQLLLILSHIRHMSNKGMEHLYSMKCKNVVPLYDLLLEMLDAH
Sequence of ERα (P03372 whole entry): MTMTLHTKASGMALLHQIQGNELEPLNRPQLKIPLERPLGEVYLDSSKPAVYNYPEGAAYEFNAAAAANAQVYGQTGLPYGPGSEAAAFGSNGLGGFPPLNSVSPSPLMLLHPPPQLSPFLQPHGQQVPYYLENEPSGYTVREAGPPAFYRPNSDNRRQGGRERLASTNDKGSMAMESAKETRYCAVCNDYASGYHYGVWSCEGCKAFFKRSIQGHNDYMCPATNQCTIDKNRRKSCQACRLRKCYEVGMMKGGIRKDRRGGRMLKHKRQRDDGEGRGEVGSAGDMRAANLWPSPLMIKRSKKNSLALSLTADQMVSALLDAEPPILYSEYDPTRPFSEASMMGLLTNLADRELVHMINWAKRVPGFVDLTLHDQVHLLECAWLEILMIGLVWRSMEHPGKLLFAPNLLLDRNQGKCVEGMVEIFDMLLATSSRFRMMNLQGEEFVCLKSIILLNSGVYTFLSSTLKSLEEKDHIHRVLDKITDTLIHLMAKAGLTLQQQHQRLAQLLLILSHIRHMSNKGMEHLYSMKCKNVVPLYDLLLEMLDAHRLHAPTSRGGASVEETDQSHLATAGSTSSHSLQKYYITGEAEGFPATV

As to `COc1cc(NC2CN(CCCF)C2)cc(F)c1[C@@H]1c2ccc3[nH]c(=O)oc3c2C[C@@H](C)N1CC(F)(F)F` [Example 34, (6S,8R)-6-(4-((1-(3-fluoropropyl)azetidin-3-yl)amino)-2-methoxy-6-fluoro-phenyl)-8-methyl-7-(2,2,2-trifluoroethyl)-6,7,8,9-6,7,8,9-tetrahydrooxazolo[5,4-f]isoquinolin-2(3H)-one], the DC50 in series [1] was 240 pM. The compound further showed a pIC50 in series [2] of 9.72. The compound further had a pIC50 in series [3] of 7.71. Besides, in series [4], the half-life is 1.78 h, the CLint scaled is 8.9 mL/min/kg and the microsomal CLint is 10.1 µL/min/mg.

With `COc1cc(O[C@H]2CCN(CCCF)C2)ccc1[C@@H]1c2ccc3[nH]c(=O)oc3c2C[C@@H](C)N1CC(F)(F)F` [Example 30, (6S,8R)-6-(4-(((S)-1-(3-fluoropropyl)pyrrolidin-3-yl)oxy)-2-methoxyphenyl)-8-methyl-7-(2,2,2-trifluoroethyl)-6,7,8,9-tetrahydroxazolo[5,4-f]isoquinolin-2(3H)-one], the DC50 in series [1] amounted to 350 pM. Moreover, in series [2], the pIC50 was 9.68. For the same compound, the pIC50 in series [3] is 8.05. Besides, in series [4], the half-life came to 1.58 h, the CLint scaled was found to be 14.4 mL/min/kg and the microsomal CLint came out at 15.8 µL/min/mg.
